# Measurements: patent US6783949B1, “Processes for determining whether a test substance contains lipases or lipase inhibitors” (Aventis Pharma Deutschland GmbH, priority 1999, dated 2004)
# Molecular target: T1, HSL (Rattus norvegicus, UniProt P15304)
# T1 construct: The partially purified HSL can be stored at −70° C. for 4 to 6 weeks; from tissue; host or cells: rat epididymal fat cells (male Wistar rats)
# T1 sequence (P15304 1-768 isoform P15304-2): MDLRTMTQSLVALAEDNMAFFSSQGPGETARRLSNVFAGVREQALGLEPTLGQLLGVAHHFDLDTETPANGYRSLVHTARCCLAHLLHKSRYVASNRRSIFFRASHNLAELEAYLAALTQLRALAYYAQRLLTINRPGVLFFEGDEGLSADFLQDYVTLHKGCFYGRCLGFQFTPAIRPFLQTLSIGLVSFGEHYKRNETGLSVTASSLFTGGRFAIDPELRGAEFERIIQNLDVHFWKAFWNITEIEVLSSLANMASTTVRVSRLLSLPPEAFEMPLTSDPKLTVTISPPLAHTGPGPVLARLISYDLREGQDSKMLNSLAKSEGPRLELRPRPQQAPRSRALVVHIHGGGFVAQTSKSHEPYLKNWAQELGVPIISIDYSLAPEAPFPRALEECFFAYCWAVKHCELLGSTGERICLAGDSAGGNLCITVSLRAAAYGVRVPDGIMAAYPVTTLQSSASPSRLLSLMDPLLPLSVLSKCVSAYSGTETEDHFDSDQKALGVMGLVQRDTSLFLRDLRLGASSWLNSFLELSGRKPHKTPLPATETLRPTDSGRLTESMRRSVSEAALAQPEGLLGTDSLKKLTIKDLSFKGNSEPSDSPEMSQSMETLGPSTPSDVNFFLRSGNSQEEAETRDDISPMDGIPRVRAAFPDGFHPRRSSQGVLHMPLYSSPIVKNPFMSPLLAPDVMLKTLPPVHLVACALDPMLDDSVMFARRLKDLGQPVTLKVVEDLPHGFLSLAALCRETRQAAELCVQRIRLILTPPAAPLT
# Assay: Indirect NAG assay (extinction increase at 481 nm)
# Type: biochemical
# Details: 60 min
# Protocol: A typical reaction is carried out at 30° C. for 60 min, for example in 1.5 ml Eppendorf vessels or 96-hole plates. […] 180 μl of the substrate solution (20 μg/ml of phosphatidylcholine, 10 μg/ml of phosphatidylinositol, 50 μg/ml of NAG in assay buffer) are added. After a preincubation for 15 min at 30° C., 20 μl of HSL in assay buffer are pipetted in and the extinction is immediately measured (see above) at 481 nm in a cuvette photometer (0.5 ml cuvette) or microtiter plate reader. After a certain incubation time, which is variable and depends on the chosen enzyme concentration and can be between 2 and 240 minutes, in this case incubation at 30° C. for 60 min, the extinction is measured again. The increase in the extinction in the yellow region, in this case at 481 nm, is a measure of the enzyme activity.
# Isolated rat fat cells are obtained from epididymal fatty tissue from untreated male rats (Wistar, 220-250 g) by collagenase treatment according to published processes. The fat cells from 10 rats are washed three times by flotation with 50 ml each of homogenization buffer ([…], pH 7.4, 0.25 M sucrose, 1 mM ethylenediamine-N,N,N′,N′-tetraacetic acid (EDTA), 1 mM dithiothreitol (DTT), 10 μg/ml of leupeptin, 10 μg/ml of antipain, 20 μg/ml of pepstatin) and finally taken up in 10 ml of homogenization buffer. The fat cells are homogenized in a Teflon-in-glass homogenizer (Braun-Melsungen) by 10 strokes at 1500 rpm and 15° C. The homogenizate is centrifuged (Sorvall SM24 tubes, 5000 rpm, 10 min, 4° C.). The […] between the overlying fatty layer and the pellet is removed and the centrifugation is repeated. The […] resulting from this is centrifuged again (Sorvall SM24 tubes, 20,000 rpm, 45 min, 4° C.). […] After incubation for 60 min at 4° C. (shake at intervals of 15 min), the batch is centrifuged (Sorvall SM24 tubes, 3000 rpm, 10 min, 4° C.). The supernatant is brought to pH 5.2 by addition of glacial acetic acid and incubated at 4° C. for 30 min. […] The suspension is dialyzed overnight at 4° C. against 25 mM TRIS/HCl, pH 7.4, 50% glycerol, 1 mM DTT, and 10 μg/ml of leupeptin, pepstatin, and antipain and then applied to a hydroxylapatite column (0.1 g per 1 ml of suspension, equilibrated with 10 mM potassium phosphate, pH 7.0, 30% glycerol, 1 mM DTT). The column is washed with four volumes of equilibration buffer at a flow rate of 20 to 30 ml/h. The HSL is eluted with a volume of equilibration buffer which contains 0.5 M potassium phosphate, then dialyzed (see above) and concentrated 5 to 10 times by ultrafiltration (Amicon Diaflo PM 10 filter) at 4° C. The partially purified HSL can be stored at −70° C. for 4 to 6 weeks.
# 6 mg of phosphatidylcholine and 6 mg of phosphatidylinositol are dissolved in 1 ml of chloroform each. 10 mg of NAG are dissolved in 1 ml of chloroform. […] The chloroform (225 μl total volume) is completely removed by overblowing with a stream of N2. The dried substrate can be stored at 4° C. for up to three days. For the preparation of the phospholipid vesicles/micelles having intercalated NAG (on the test day), the dried substrate is taken up in 20 ml of assay buffer (25 mM TRIS/HCl, pH 7.4; 150 mM NaCl) and two ultrasonic treatments with an ultrasonic probe (Branson Sonifier type 11, standard microtip): 1st treatment setting 2, 2×1 min, in between in each case 1 min on ice; 2nd treatment setting 4, 2×1 min, in between in each case 1 min on ice. […] Before use as a substrate (within the next 2 h), the solution is additionally incubated on ice for 15 min.
# The assay is carried out at 30° C. for 60 min in 1.5 ml Eppendorf vessels or 96-hole plates.
smiles,measurement,setting,value
O=C(CCCCCCCCCCCNc1ccc([N+](=O)[O-])c2nonc12)OCC(O)CO (centres unmarked) [Compound (3)],Increase in the absorption at 481 nm,"NAG 0.075 mg/ml, HSL 40 μg",15502 ± 1077 arb. units
same,Increase in the absorption at 481 nm,"NAG 0.1 mg/ml, HSL 5 μg",1521 ± 119 arb. units
same,Increase in the absorption at 481 nm,"NAG 0.1 mg/ml, HSL 20 μg",6124 ± 577 arb. units
same,Increase in the absorption at 481 nm,"NAG 0.1 mg/ml, HSL 40 μg",19223 ± 1599 arb. units
same,Increase in the absorption at 481 nm,"NAG 0.15 mg/ml, HSL 5 μg",1983 ± 155 arb. units
same,Increase in the absorption at 481 nm,"NAG 0.15 mg/ml, HSL 20 μg",7544 ± 603 arb. units
same,Increase in the absorption at 481 nm,"NAG 0.15 mg/ml, HSL 40 μg",26730 ± 2069 arb. units
same,Increase in the absorption at 481 nm,"NAG 0.2 mg/ml, HSL 5 μg",2242 ± 186 arb. units
same,Increase in the absorption at 481 nm,"NAG 0.2 mg/ml, HSL 20 μg",8898 ± 961 arb. units
same,Increase in the absorption at 481 nm,"NAG 0.2 mg/ml, HSL 40 μg",31641 ± 2304 arb. units
same,Increase in the absorption at 481 nm,"NAG 0.3 mg/ml, HSL 5 μg",2489 ± 213 arb. units
same,Increase in the absorption at 481 nm,"NAG 0.3 mg/ml, HSL 20 μg",9734 ± 825 arb. units
same,Increase in the absorption at 481 nm,"NAG 0.3 mg/ml, HSL 40 μg",35953 ± 3355 arb. units
same,Increase in the absorption at 481 nm,"PI/PC 0 mg/ml, PI:PC 1:1, HSL 20 μg, NAG 0.05 mg/ml",134 ± 23 arb. units
same,Increase in the absorption at 481 nm,"PI/PC 0 mg/ml, PI:PC 1:3, HSL 20 μg, NAG 0.05 mg/ml",89 ± 12 arb. units
same,Increase in the absorption at 481 nm,"PI/PC 0 mg/ml, PI:PC 3:1, HSL 20 μg, NAG 0.05 mg/ml",173 ± 42 arb. units
same,Increase in the absorption at 481 nm,"PI/PC 0.009 mg/ml, PI:PC 1:1, HSL 20 μg, NAG 0.05 mg/ml",548 ± 76 arb. units
same,Increase in the absorption at 481 nm,"PI/PC 0.009 mg/ml, PI:PC 1:3, HSL 20 μg, NAG 0.05 mg/ml",289 ± 77 arb. units
same,Increase in the absorption at 481 nm,"PI/PC 0.009 mg/ml, PI:PC 3:1, HSL 20 μg, NAG 0.05 mg/ml",1437 ± 132 arb. units
same,Increase in the absorption at 481 nm,"PI/PC 0.018 mg/ml, PI:PC 1:1, HSL 20 μg, NAG 0.05 mg/ml",1430 ± 188 arb. units
same,Increase in the absorption at 481 nm,"PI/PC 0.018 mg/ml, PI:PC 1:3, HSL 20 μg, NAG 0.05 mg/ml",692 ± 94 arb. units
same,Increase in the absorption at 481 nm,"PI/PC 0.018 mg/ml, PI:PC 3:1, HSL 20 μg, NAG 0.05 mg/ml",2610 ± 306 arb. units
same,Increase in the absorption at 481 nm,"PI/PC 0.075 mg/ml, PI:PC 1:1, HSL 20 μg, NAG 0.05 mg/ml",1138 ± 125 arb. units
same,Increase in the absorption at 481 nm,"PI/PC 0.075 mg/ml, PI:PC 1:3, HSL 20 μg, NAG 0.05 mg/ml",1679 ± 143 arb. units
same,Increase in the absorption at 481 nm,"PI/PC 0.075 mg/ml, PI:PC 3:1, HSL 20 μg, NAG 0.05 mg/ml",3365 ± 402 arb. units
same,Increase in the absorption at 481 nm,"PI/PC 0.15 mg/ml, PI:PC 1:1, HSL 20 μg, NAG 0.05 mg/ml",745 ± 97 arb. units
same,Increase in the absorption at 481 nm,"PI/PC 0.15 mg/ml, PI:PC 1:3, HSL 20 μg, NAG 0.05 mg/ml",912 ± 103 arb. units
same,Increase in the absorption at 481 nm,"PI/PC 0.15 mg/ml, PI:PC 3:1, HSL 20 μg, NAG 0.05 mg/ml",2108 ± 256 arb. units
same,Increase in the absorption at 481 nm,"PI/PC 0.3 mg/ml, PI:PC 1:1, HSL 20 μg, NAG 0.05 mg/ml",335 ± 47 arb. units
same,Increase in the absorption at 481 nm,"PI/PC 0.3 mg/ml, PI:PC 1:3, HSL 20 μg, NAG 0.05 mg/ml",427 ± 56 arb. units
same,Increase in the absorption at 481 nm,"PI/PC 0.3 mg/ml, PI:PC 3:1, HSL 20 μg, NAG 0.05 mg/ml",913 ± 102 arb. units
same,Extinction change at 480 nm,"standard conditions, 20 μg of partially purified HSL",4000 arb. units
